From article PMC11169557, “The Goldilocks paradigm: comparing classical machine learning, large language models, and few-shot learning for drug discovery applications” (Communications Chemistry, 2024)
pIC50: −log10 of the molar value. Counter-ions that a name gives are not always drawn.

Target: MARK1 (Homo sapiens, UniProt Q9P0L2)
Experiment: MARK1 inhibition, IC50 determination (dose-response) using Z'-LYTE assay
Format: biochemical
Conditions: for pIC50: Z'-LYTE assay, non-linear regression (3-parameters); for Active (Measured): hits of the initial screen followed up with dose-response curves, 1 = true MARK1 inhibitor; for MARK1 inhibitor (result in words): out of the 13 tested compounds

MARK1, sequence (Q9P0L2 whole entry): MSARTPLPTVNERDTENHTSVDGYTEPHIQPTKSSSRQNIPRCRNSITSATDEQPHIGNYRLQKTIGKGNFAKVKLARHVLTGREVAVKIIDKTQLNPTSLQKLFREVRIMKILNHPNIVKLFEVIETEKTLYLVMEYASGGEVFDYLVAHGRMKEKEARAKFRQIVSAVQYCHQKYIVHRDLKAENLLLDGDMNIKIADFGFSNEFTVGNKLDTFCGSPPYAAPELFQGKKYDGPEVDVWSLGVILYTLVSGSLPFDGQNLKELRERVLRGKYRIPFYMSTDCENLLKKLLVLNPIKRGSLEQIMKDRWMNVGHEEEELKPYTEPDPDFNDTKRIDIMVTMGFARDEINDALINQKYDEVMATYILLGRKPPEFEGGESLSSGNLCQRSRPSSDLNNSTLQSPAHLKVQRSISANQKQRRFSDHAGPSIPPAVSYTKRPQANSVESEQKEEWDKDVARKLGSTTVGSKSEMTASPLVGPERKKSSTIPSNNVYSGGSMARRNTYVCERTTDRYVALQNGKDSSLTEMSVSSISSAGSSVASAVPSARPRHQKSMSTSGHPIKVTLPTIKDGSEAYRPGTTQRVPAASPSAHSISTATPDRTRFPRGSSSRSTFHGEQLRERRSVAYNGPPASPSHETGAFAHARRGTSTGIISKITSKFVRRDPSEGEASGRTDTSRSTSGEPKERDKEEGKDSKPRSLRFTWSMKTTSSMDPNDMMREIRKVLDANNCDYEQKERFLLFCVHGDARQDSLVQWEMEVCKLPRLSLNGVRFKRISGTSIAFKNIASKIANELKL

SMILES	pIC50	Active (Measured)	MARK1 inhibitor (result in words)
O=C(Nc1c[nH]nc1-c1nc2ccc(CN3CCOCC3)cc2[nH]1)NC1CC1 [AT9283]	6.73	1	true novel MARK1 active inhibitors
CCS(=O)(=O)N1CC(CC#N)(n2cc(-c3ncnc4[nH]ccc34)cn2)C1 [Baricitinib]	6.78	1	true novel MARK1 active inhibitors
COc1cc(Nc2c(C#N)cnc3cc(OCCCN4CCN(C)CC4)c(OC)cc23)c(Cl)cc1Cl [Bosutinib]		0	
Cc1cc(Nc2ncc(Cl)c(Nc3ccccc3S(=O)(=O)C(C)C)n2)c(OC(C)C)cc1C1CCNCC1 [Ceritinib]		0	
Cc1cc(C(C#N)c2ccc(Cl)cc2)c(Cl)cc1NC(=O)c1cc(I)cc(I)c1O (stereo not drawn) [Closantel]		0	
C[C@@H](Oc1cc(-c2cnn(C3CCNCC3)c2)cnc1N)c1c(Cl)ccc(F)c1Cl [Crizotinib]		0	
CC(C)(C)NC[C@H](O)COc1cccc2c1CCCC2=O.Cl [Levobunolol (hydrochloride)]		0	
CN1CCN(c2ccc(Nc3ncc4cc(C#N)c(=O)n(C5CCCC5)c4n3)cc2)CC1 [ON123300]	6.66	1	true novel MARK1 active inhibitors
C[C@@H]1CCN(C(=O)CC#N)C[C@@H]1N(C)c1ncnc2[nH]ccc12 [Tofacitinib citrate]		1	true novel MARK1 active inhibitors
CC[C@@H]1CN(C(=O)NCC(F)(F)F)C[C@@H]1c1cnc2cnc3[nH]ccc3n12 [Upadacitinib]	6.49	1	true novel MARK1 active inhibitors
COc1cc(O)c2c(c1)oc(=O)c1c3cc(O)c(O)cc3oc21 [Wedelolactone]		0	
CCCCCCCCc1ccc(CCC(N)(CO)CO)cc1 [fingolimod]		0	
